Test [1] has as its system HD larvae (Elav^c155-GAL4; UAS-Htt-Q138/+). Briefly: In vivo rescue: viability of HD larvae after 5-day drug dosing in liquid culture. The following applies: larvae reared in liquid culture, 5-day dosing, compared to DMSO-treated controls. On the set-up: species or system Drosophila. As for the experimental part: In vivo Rescue studies: For small molecule in vivo rescue studies, Elav^c155; UAS-Htt-Q138-mRFP^1, UAS-mCD8-GFP/+1st instar larvae were collected en-masse and dispensed into liquid yeast media (10 larvae/well) containing therapeutic agents at three different concentrations as described in the results (n=8 replicas/concentration). Cultures were reared at 21° C. and larval viability was assessed after 5 days and the mean number of living Htt138Q larvae (i.e. GFP^+, Htt138QmRFP^+, and mobile) was tabulated, and expressed as a percentage of total larvae/well. For genetic rescue studies with lkb1, two Htt138Q strains were utilized: a strong expressing line, UAS-Htt138QmRFP^1 which is pharate lethal when crossed to Elav^c155, and a weaker expressing line, UAS-Htt138QmRFP^2 which survives to adulthood and is viable for a number of weeks. Using the strong line, pharate lethality at 25° C. was calculated after lkb1 (lkb1^4B1-11 and lkb1^4A4-2 alleles) was introduced into an Elav^c155, UAS-Htt/+background. Lkb1^4B1-11 is a premature truncation allele (Q98>Stop), and lkb1^4A4-2 is an EMS null allele (589 b.p. deletion removing 150 b.p. of the 5′ UTR, the start codon and the beginning of the open reading frame). For Top1 in vivo analysis, Elav^c155, Top^112 recombinants were generated and crossed to UAS-Htt138QmRFP^1.
To further examine the RNAi/small molecule screen hits, we assayed in vivo efficacy by testing their ability to rescue lethality in our Drosophila HD model. […] Specific inhibitors of Lkb1 were not available for in vivo testing.

The subject of test [2] is PC12 cells. As to conditions: cited from earlier work.
In test [3] the test system is gap junction. As to conditions: cited from earlier work.

As to `CC1(C)[C@@H](O)CC[C@]2(C)[C@H]3C(=O)C=C4[C@@H]5C[C@@](C)(C(=O)O)CC[C@]5(C)CC[C@@]4(C)[C@]3(C)CC[C@@H]12` [18β-Glycyrrhetinic acid], the “Viability of Htt-Q138 expressing larvae / rescue of Htt-Q138 lethality” value in test [1] is recorded as “rescue HD toxicity in vivo”; in test [1] (listed as 180-Glycyrrhetinic acid) it was “almost as efficacious as Rapamycin”. For the same compound, in test [2], the “Neurotoxicity in PC12 cellular stress model” value is on record as “suppresses neurotoxicity”. Further, in test [3], the Gap junction activity result was “block gap junction activity”.

These data come from patent US20130303562A1, “CHEMICAL AND RNAI SUPPRESSORS OF NEUROTOXICITY IN HUNTINGTON'S DISEASE” (priority 2010, published 2013).
